For this assay, the target named is T1, TLR8 (Homo sapiens, UniProt Q9NR97).
T1 sequence (Q9NR97 27-1041): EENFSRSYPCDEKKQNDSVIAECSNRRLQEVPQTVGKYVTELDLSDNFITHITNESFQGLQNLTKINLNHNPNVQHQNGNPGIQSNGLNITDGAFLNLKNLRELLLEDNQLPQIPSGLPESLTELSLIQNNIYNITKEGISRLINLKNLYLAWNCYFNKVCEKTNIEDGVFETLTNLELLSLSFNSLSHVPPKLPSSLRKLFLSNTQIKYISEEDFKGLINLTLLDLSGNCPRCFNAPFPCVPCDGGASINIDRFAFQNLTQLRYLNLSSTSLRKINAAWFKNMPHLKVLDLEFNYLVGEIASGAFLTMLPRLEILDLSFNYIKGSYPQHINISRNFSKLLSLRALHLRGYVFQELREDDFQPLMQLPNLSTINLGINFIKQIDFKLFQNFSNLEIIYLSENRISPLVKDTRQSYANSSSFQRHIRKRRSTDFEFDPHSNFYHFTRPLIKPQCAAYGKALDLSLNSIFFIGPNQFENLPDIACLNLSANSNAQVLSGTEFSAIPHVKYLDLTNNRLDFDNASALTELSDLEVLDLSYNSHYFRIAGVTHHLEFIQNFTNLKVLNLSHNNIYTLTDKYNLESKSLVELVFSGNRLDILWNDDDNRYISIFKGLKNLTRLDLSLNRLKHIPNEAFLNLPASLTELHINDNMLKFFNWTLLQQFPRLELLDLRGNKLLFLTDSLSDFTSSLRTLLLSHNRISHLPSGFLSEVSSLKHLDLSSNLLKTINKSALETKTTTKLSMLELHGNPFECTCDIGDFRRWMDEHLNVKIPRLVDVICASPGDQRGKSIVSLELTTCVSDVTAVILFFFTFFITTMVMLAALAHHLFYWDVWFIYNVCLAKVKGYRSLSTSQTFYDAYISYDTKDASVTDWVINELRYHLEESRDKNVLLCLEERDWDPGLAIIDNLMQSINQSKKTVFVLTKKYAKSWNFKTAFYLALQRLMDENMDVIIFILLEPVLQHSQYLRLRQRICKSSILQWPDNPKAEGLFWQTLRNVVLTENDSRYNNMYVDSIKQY
Description: Inhibition of TL8-506-stimulated NF-κB activity (SEAP reporter, QuantiBlue) in hTLR8-HEK293 reporter cells. The conditions noted are these: for inhibition at 10 µM: read-out: % inhibition at 10 µM ± SEM (NF-κB activity); for IC50: read-out: IC50 [μM] (95% CI) hTLR8-HEK293, inhibition of NF-κB activity, 1 h preincubation. Type of assay: cell-based. On the set-up: host or cells: HEK293 (HEK-Blue hTLR8).

Setting [1] is: 10 µM compound, TL8-506 (0.6 μM) 24 h, hTLR8-HEK293.

For the compound `Cc1noc(C)c1COc1cccc(C(=O)N2CCCC(C)C2CN)c1` (centres unmarked) [Compound 2], under setting [1], the inhibition at 10 µM was determined as 3 ± 2%.
For the compound `Cc1noc(C)c1COc1cccc(C(=O)N2CCN(C)CC2C)c1` (centres unmarked) [Compound 3], the inhibition at 10 µM under setting [1] is -6 ± 2%.
Still for that read-out and setting: for `Cc1noc(C)c1COc1ccc(C(=O)NCC(c2c(F)cccc2Cl)N(C)C)cc1` (centres unmarked) [Compound 5] the value was 37 ± 7%; for `Cc1noc(C)c1COc1cccc(C(=O)NCCN(C(C)C)C(C)C)c1` [Compound 6], 9 ± 4%; for `Cc1noc(C)c1COc1cccc(C(=O)N2CCCN(Cc3ccc(C(F)(F)F)cc3)CC2)c1` [Compound 7], 5 ± 7%.
For the compound `CCN1CCC(CNC(=O)c2cccc(OCc3c(C)noc3C)c2)CC1` [Compound 8], the inhibition at 10 µM under setting [1] came out at 20 ± 4%.
As for `COc1cc(C(=O)NCCN2CCCC2)ccc1OCc1c(C)noc1C` [Compound 11], the IC50 (TL8-506 (0.6 μM) 24 h) came out at 6.62 µM.
For `Cc1noc(C)c1COc1ccc(C(=O)N2CCN(Cc3ccccc3)CC2)cc1` [Compound 17, 4-Benzylpiperazin-1-yl(4-((3,5-Dimethylisoxazol-4-yl)methoxy)phenyl)methanone], the “inhibition of NF-κB at 10 μM (in words)” value (hTLR8-HEK293) is recorded as “moderate”. In addition, the inhibition at 10 µM under setting [1] was 52 ± 4%.
Turning to `Cc1noc(C)c1COc1ccc(C(=O)NCCN2CCCC2)cc1` [Compound 18, 4-((3,5-Dimethylisoxazol-4-yl)methoxy)-N-(2-(pyrrolidin-1-yl)ethyl)benzamide], the inhibition at 10 µM under setting [1] came out at 61 ± 3%.
With `Cc1noc(C)c1COc1ccc(C(=O)NC2CCN(C)C2)cc1` (centres unmarked) [Compound 19, 4-((3,5-Dimethylisoxazol-4-yl)methoxy)-N-(1-methylpyrrolidin-3-yl)benzamide], the inhibition at 10 µM under setting [1] stood at 89 ± 2%. Further, the concentration for half-maximal inhibition (IC50) (TL8-506 (0.6 μM) 24 h) turned out to be 3.06 µM.
As for `Cc1noc(C)c1COc1ccc(C(=O)NN2CCN(C)CC2)cc1` [Compound 20, 4-((3,5-Dimethylisoxazol-4-yl)methoxy)-N-(4-methylpiperazin-1-yl)benzamide], the inhibition at 10 µM under setting [1] was 63 ± 0.7%.
Same read-out and setting: for `Cc1noc(C)c1COc1ccc(C(=O)N2CCC(N3CCCC3)CC2)cc1` [Compound 21, (4-((3,5-Dimethylisoxazol-4-yl)methoxy)phenyl)(4-(pyrrolidin-1-yl)piperidin-1-yl)methanone] the value was 75 ± 2%.
In the case of `COc1cc(C(=O)N2CCN(Cc3ccccc3)CC2)ccc1OCc1c(C)noc1C` [Compound 22, (4-Benzylpiperazin-1-yl)(4-((3,5-dimethylisoxazol-4-yl)methoxy)-3-methoxyphenyl)methanone], the “inhibition of NF-κB at 10 μM (in words)” value (hTLR8-HEK293) is reported as “moderate”. The inhibition at 10 µM under setting [1] came out at 54 ± 3%.
In the case of `COc1cc(C(=O)NN2CCN(C)CC2)ccc1OCc1c(C)noc1C` [Compound 23, 4-((3,5-Dimethylisoxazol-4-yl)methoxy)-3-methoxy-N-(4-methylpiperazin-1-yl)benzamide], the “inhibition of NF-κB at 10 μM (in words)” value (hTLR8-HEK293) is reported as “moderate”. In addition, the inhibition at 10 µM under setting [1] is 57 ± 3%.
Regarding `COc1cc(C(=O)N2CCC(N3CCCC3)CC2)ccc1OCc1c(C)noc1C` [Compound 24, (4-((3,5-Dimethylisoxazol-4-yl)methoxy)-3-methoxyphenyl)(4-(pyrrolidin-1-yl)piperidin-1-yl)methanone], the inhibition at 10 µM under setting [1] was 96 ± 2%. Further, the half-inhibitory concentration (IC50) (TL8-506 (0.6 μM) 24 h) was 3.46 µM.
Regarding `COc1cc(C(=O)N2CCC(N3CCCCC3)CC2)ccc1OCc1c(C)noc1C` [Compound 26, [1,4′-Bipiperidin]-1′-yl(4-((3,5-dimethylisoxazol-4-yl)methoxy)-3-methoxyphenyl)methanone], the inhibition at 10 µM under setting [1] was 77 ± 4%. Further, for the setting “TL8-506 (0.6 μM) 24 h”, the IC50 was found to be 18.3 µM.
As to `COc1cc(C(=O)NC2CCN(C)C2)ccc1OCc1c(C)noc1C` (centres unmarked) [Compound 27, 4-((3,5-Dimethylisoxazol-4-yl)methoxy)-3-methoxy-N-(1-methylpyrrolidin-3-yl)benzamide], the inhibition at 10 µM under setting [1] turned out to be 84 ± 4%. The IC50 (TL8-506 (0.6 μM) 24 h) was determined as 8.15 µM.
`COc1cc(C(=O)NC2CCN(C(C)C)CC2)ccc1OCc1c(C)noc1C` [Compound 28, 4-((3,5-Dimethylisoxazol-4-yl)methoxy)-N-(1-isopropylpiperidin-4-yl)-3-methoxybenzamide]: the inhibition at 10 µM under setting [1] is 97 ± 1%. Further, the half-maximal inhibitory concentration (IC50) (TL8-506 (0.6 μM) 24 h) was 1.73 µM.
For `CCN1CCC(NC(=O)c2ccc(OCc3c(C)noc3C)c(OC)c2)C1` (centres unmarked) [Compound 29, 4-((3,5-Dimethylisoxazol-4-yl)methoxy)-N-(1-ethylpyrrolidin-3-yl)-3-methoxybenzamide], under setting [1], the inhibition at 10 µM stood at 72 ± 5%.
Turning to `COc1cc(C(=O)N2CCN(CCO)CC2)ccc1OCc1c(C)noc1C` [Compound 30, (4-((3,5-Dimethylisoxazol-4-yl)methoxy)-3-methoxyphenyl)(4-(2-hydroxyethyl)piperazin-1-yl)methanone], the “inhibition of NF-κB at 10 μM (in words)” value (hTLR8-HEK293) is on record as “low inhibition”. Also, the inhibition at 10 µM under setting [1] was determined as 24 ± 9%.
`CCCN1CCC(NC(=O)c2ccc(OCc3c(C)noc3C)c(OC)c2)CC1` [Compound 31, 4-((3,5-Dimethylisoxazol-4-yl)methoxy)-3-methoxy-N-(1-propylpiperidin-4-yl)benzamide]: the inhibition at 10 µM under setting [1] is 98 ± 0.3%. The IC50 (TL8-506 (0.6 μM) 24 h) was determined as 1.66 µM.
On to `COc1cc(C(=O)NCC2CCN(C)C2)ccc1OCc1c(C)noc1C` (centres unmarked) [Compound 32, 4-((3,5-Dimethylisoxazol-4-yl)methoxy)-3-methoxy-N-((1-methylpyrrolidin-3-yl)methyl)benzamide], for which the inhibition at 10 µM under setting [1] amounted to 77 ± 5%.
For the compound `COc1cc(C(=O)NC2CCN(C)CC2)ccc1OCc1c(C)noc1C` [Compound 33, 4-((3,5-Dimethylisoxazol-4-yl)methoxy)-3-methoxy-N-(1-methylpiperidin-4-yl)benzamide], the inhibition at 10 µM under setting [1] is 94 ± 2%.
Take `Cc1noc(C)c1COc1ccc(C(=O)NC2CCN(C)CC2)cc1` [Compound 34, 4-((3,5-Dimethylisoxazol-4-yl)methoxy)-N-(1-methylpiperidin-4-yl)benzamide]: under setting [1], the inhibition at 10 µM was 97 ± 0.9%. Further, the 50% inhibitory concentration (IC50) (TL8-506 (0.6 μM) 24 h) turned out to be 1.68 µM.
Consider `Cc1noc(C)c1COc1ccc(C(=O)NC2CCN(C(C)C)CC2)cc1` [Compound 35, 4-((3,5-Dimethylisoxazol-4-yl)methoxy)-N-(1-isopropylpiperidin-4-yl)benzamide], for which, under setting [1], the inhibition at 10 µM is 99 ± 0.2%. For the same compound, where the note is “TL8-506 (0.6 μM) 24 h”, the IC50 came to 0.99 µM.
Regarding `Cc1noc(C)c1COc1ccc(C(=O)N2CCN(CCO)CC2)cc1` [Compound 36, (4-((3,5-Dimethylisoxazol-4-yl)methoxy)phenyl)(4-(2-hydroxyethyl)piperazin-1-yl)methanone], under “hTLR8-HEK293”, the “inhibition of NF-κB at 10 μM (in words)” value is recorded as “low inhibition”. The inhibition at 10 µM under setting [1] was determined as 26 ± 2%.
As to `Cc1noc(C)c1COc1ccc(C(=O)NCC2CCN(C)C2)cc1` (centres unmarked) [Compound 37, 4-((3,5-Dimethylisoxazol-4-yl)methoxy)-N-((1-methylpyrrolidin-3-yl)methyl)benzamide], the inhibition at 10 µM under setting [1] was 80 ± 2%.
As to `CCCN1CCC(NC(=O)c2ccc(OCc3c(C)noc3C)cc2)CC1` [Compound 38, 4-((3,5-Dimethylisoxazol-4-yl)methoxy)-N-(1-propylpiperidin-4-yl)benzamide], the inhibition at 10 µM under setting [1] was 100 ± 0.1%. Besides, the IC50 (TL8-506 (0.6 μM) 24 h) amounted to 0.78 µM.
For `CCN1CCC(NC(=O)c2ccc(OCc3c(C)noc3C)cc2)CC1` [Compound 39, 4-((3,5-Dimethylisoxazol-4-yl)methoxy)-N-(1-ethylpiperidin-4-yl)benzamide] the same measures were 100 ± 0.2% and 1.1 µM.
With `CCCCN1CCC(NC(=O)c2ccc(OCc3c(C)noc3C)cc2)CC1` [Compound 40, N-(1-Butylpiperidin-4-yl)-4-((3,5-dimethylisoxazol-4-yl)methoxy)benzamide], the inhibition at 10 µM under setting [1] was determined as 99 ± 0.4%. In addition, under “TL8-506 (0.6 μM) 24 h”, the 50% inhibitory concentration (IC50) is 0.73 µM.
For `C=CCN1CCC(NC(=O)c2ccc(OCc3c(C)noc3C)cc2)CC1` [Compound 41, N-(1-Allylpiperidin-4-yl)-4-((3,5-dimethylisoxazol-4-yl)methoxy)benzamide] the same measures were 99 ± 0.7% and 0.5 µM.
As for `Cc1noc(C)c1COc1ccc(C(=O)NC2CCNCC2)cc1` [Compound 43, 4-((3,5-Dimethylisoxazol-4-yl)methoxy)-N-(piperidin-4-yl)benzamide], under setting [1], the inhibition at 10 µM was 32%.
In the case of “(4-((3,5-Dimethylisoxazol-4-yl)methoxy)-3-methoxyphenyl)(5-methylhexahydropyrrolo[3,4-c]pyrrol-2(1H)-yl)methanone [Compound 25]”, the “% inhibition at 10 µM ± SEM (NF-κB activity)” value under setting [1] stood at 68 ± 6%.

The term inhibition denotes the relative decrease from the control value, in per cent. By IC50 is commonly meant the concentration that gives 50% inhibition. The term % inhibition denotes the percentage by which the read-out fell short of the control. Read a low % inhibition as a weak effect.

For the origin of these results see paper PMC12613816, “Discovery of Novel Isoxazole-Based Small-Molecule Toll-Like Receptor 8 Antagonists” (Journal of Medicinal Chemistry, 2025).
